Assay results as given in patent publication US12630498B2 (Genzyme Corporation, priority 2019, dated 2026).

How the values were obtained:
[1] = molecular target: T1, CFTR-mediated transepithelial chloride transport in primary human bronchial epithelial cells from a ΔF508 homozygous CF donor (Homo sapiens, UniProt P13569, DEL508-508); assay: TECC24 recording of CFTR-mediated transepithelial chloride transport in CF-HBE cells (AUC fold over DMSO); type: cell-based; conditions: test agent 10 μM, 48 hours incubation, AUC of forskolin-stimulated IEQ relative to DMSO
T1 construct: Primary human bronchial epithelial cells from a ΔF508 homozygous CF donor; host or cells: primary CF-HBE cells, ΔF508 homozygous donor
Summary of the method: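 Equivalent Cl⁻ current was derived from transepithelial voltage and resistance, and its AUC from forskolin (10 μM) to CFTRinh-172 (20 μM) was divided by the DMSO AUC. Benzamil 10 μM blocked ENaC. Cells were ΔF508-homozygous primary bronchial epithelia pretreated 48 h at 36.5 °C in IL-13 medium.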

[2] = molecular target: T2, human Cystic Fibrosis Transmembrane Conductance Regulator (CFTR) harboring the ΔF508 mutation (Homo sapiens, UniProt P13569, DEL508-508); assay: H441 cell ΔF508-CFTR-HRP cell surface assay (Emax and EC50); type: cell-based; conditions: for Emax: NCI-H441, NA = Not active
T2 construct: expressed in transfected cells; host or cells: H441 carcinoma line (G418-selected)
Summary of the method: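 H441 and 41o- bronchial epithelial cells expressing ΔF508-CFTR with an extracellular-loop-4 HRP tag were treated with a 15-point compound series (24.5–0.001 μM) for two nights, H441 at 27° C, 41o- at 37° C with 0.0005 mg/ml doxycycline. Surface HRP luminescence read; % of maximum VX809 signal and EC50 derived.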

T2 sequence (P13569 with tags, fused parts or gaps DEL508-508): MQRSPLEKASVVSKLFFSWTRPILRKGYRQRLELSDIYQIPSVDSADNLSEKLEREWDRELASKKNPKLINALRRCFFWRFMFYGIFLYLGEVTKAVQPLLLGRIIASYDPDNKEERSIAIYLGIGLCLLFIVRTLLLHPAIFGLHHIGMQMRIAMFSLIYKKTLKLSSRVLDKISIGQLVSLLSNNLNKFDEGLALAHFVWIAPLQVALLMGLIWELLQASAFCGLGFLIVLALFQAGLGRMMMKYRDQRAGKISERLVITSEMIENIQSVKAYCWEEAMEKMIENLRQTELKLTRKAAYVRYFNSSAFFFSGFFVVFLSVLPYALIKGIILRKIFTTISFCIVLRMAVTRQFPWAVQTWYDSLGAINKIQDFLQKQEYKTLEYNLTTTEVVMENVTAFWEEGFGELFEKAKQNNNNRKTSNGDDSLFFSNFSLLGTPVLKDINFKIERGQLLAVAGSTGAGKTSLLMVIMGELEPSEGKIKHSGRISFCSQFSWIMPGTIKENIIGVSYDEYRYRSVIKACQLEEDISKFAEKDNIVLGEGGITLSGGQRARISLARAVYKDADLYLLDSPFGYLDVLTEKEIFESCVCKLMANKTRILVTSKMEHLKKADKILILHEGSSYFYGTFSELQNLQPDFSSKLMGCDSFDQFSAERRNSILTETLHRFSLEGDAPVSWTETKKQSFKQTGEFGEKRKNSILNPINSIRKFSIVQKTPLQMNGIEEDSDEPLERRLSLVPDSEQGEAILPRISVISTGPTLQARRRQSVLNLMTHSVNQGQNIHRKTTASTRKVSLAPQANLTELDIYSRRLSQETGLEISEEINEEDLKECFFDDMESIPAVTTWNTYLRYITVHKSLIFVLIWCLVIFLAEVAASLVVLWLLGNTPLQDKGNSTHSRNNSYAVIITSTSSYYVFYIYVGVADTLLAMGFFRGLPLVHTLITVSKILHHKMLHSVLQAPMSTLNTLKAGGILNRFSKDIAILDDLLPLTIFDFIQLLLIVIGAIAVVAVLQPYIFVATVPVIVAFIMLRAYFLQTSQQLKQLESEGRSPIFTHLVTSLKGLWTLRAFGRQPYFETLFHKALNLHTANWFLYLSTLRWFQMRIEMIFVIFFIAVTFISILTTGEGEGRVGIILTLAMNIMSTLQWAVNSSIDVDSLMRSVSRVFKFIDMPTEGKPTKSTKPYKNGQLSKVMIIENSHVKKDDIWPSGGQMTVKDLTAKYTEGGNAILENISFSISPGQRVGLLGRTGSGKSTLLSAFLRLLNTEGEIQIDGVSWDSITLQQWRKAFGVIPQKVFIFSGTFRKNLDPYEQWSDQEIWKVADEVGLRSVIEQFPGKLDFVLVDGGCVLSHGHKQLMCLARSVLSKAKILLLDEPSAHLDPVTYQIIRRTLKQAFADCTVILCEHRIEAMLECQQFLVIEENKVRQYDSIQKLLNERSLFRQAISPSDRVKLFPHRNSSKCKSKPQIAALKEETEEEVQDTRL
T1 sequence (P13569 with tags, fused parts or gaps DEL508-508): as above

Row | TECC24 AUC fold over DMSO @10 μM [1] | EC50 [2] [nM] | Emax [2] [%] | SMILES
1 | A (“A” refers to AUC @10 uM >6) | 100 | 417 | CCCC(C)(C)[C@H](NC(=O)c1ccc2ccc(Cl)cc2c1OCc1ccc(C(F)(F)F)cc1)C(=O)O [Example 306, (S)-2-(7-chloro-1-((4-(trifluoromethyl)benzyl)oxy)-2-naphthamido)-3,3-dimethylhexanoic Acid]
2 | C (“C” refers to AUC @10 uM <4) | 4800 | 86.8 | CC(C)(C)C[C@H](NC(=O)c1ccc2cc(F)ccc2c1OCc1nc2ccccc2s1)C(=O)O [Example 218, (S)-2-(1-(benzo[d]thiazol-2-ylmethoxy)-6-fluoro-2-naphthamido)-4,4-dimethylpentanoic Acid]
3 | B (“B” refers to AUC @10 uM between 4-6) | 100 | 214 | O=C(N[C@H](C(=O)O)C(c1ccccc1)c1ccccc1)c1ccc2ccccc2c1OCc1ccc(C(F)(F)F)cc1 [Example 126, (S)-3,3-diphenyl-2-(1-((4-(trifluoromethyl)benzyl)oxy)-2-naphthamido)propanoic Acid]
4 | C (“C” refers to AUC @10 uM <4) | 800 | 101 | O=C(N[C@H](C(=O)O)C(c1ccccc1)c1ccccc1)c1ccc2cc(F)ccc2c1OCC1CCCCC1 [Example 203]
5 | C (“C” refers to AUC @10 uM <4) | 2200 | 86.9 | O=C(N[C@H](C(=O)O)c1cccc2ccccc12)c1ccc2ccccc2c1OCc1ccc(C(F)(F)F)cc1 [Example 142, (S)-2-(naphthalen-1-yl)-2-(1-((4-(trifluoromethyl)benzyl)oxy)-2-naphthamido)acetic Acid]
6 | C (“C” refers to AUC @10 uM <4) | 900 | 150 | Cc1cc(C)c(C[C@H](NC(=O)c2ccc3ccccc3c2OCc2ccc(C(F)(F)F)cc2)C(=O)O)c(C)c1 [Example 178, (S)-3-mesityl-2-(1-((4-(trifluoromethyl)benzyl)oxy)-2-naphthamido)propanoic Acid]
7 | C (“C” refers to AUC @10 uM <4) | 4300 | 38.8 | O=C(N[C@@H](Cc1ccc(C(F)(F)F)cc1)C(=O)O)c1ccc2cc(F)ccc2c1OCc1ccc(Cl)c(Cl)c1 [Example 210, (S)-2-(1-((3,4-dichlorobenzyl)oxy)-6-fluoro-2-naphthamido)-3-(4-(trifluoromethyl)phenyl)propanoic Acid]
8 | A (“A” refers to AUC @10 uM >6) | 400 | 242 | CCC(C)(C)[C@H](NC(=O)c1ccc2ccccc2c1OCc1ccc(C(F)(F)F)cc1)C(=O)O [Example 78, (S)-3,3-dimethyl-2-(1-((4-(trifluoromethyl)benzyl)oxy)-2-naphthamido)pentanoic Acid]
9 | A (“A” refers to AUC @10 uM >6) | 500 | 345 | CCC(C)(C)[C@H](NC(=O)c1ccc2ccc(OC)cc2c1OCc1ccc(OC(F)(F)F)cc1)C(=O)O [Example 311, (S)-2-(7-methoxy-1-((4-(trifluoromethoxy)benzyl)oxy)-2-naphthamido)-3,3-dimethylpentanoic Acid]
10 | A (“A” refers to AUC @10 uM >6) | – | 239 | CCC1([C@H](NC(=O)c2ccc3ccc(Cl)cc3c2OCc2ccc(OC(F)(F)F)cc2)C(=O)O)CCCC1 [Example 253, (2S)-2-[[7-chloro-1-[[4-(trifluoromethoxy)phenyl]methoxy]naphthalene-2-carbonyl]amino]-2-(1-ethylcyclopentyl)acetic Acid]
11 | A (“A” refers to AUC @10 uM >6) | 100 | 217 | CC1([C@H](NC(=O)c2ccc3ccc(C(F)(F)F)cc3c2OCc2ccc(C(F)(F)F)cc2)C(=O)O)CCCC1 [Example 301, (S)-2-(1-methylcyclopentyl)-2-(7-(trifluoromethyl)-1-((4-(trifluoromethyl)benzyl)oxy)-2-naphthamido)acetic Acid]
12 | A (“A” refers to AUC @10 uM >6) | 700 | 91.9 | CC(C)(C)[C@H](NC(=O)c1ccc2cc(F)ccc2c1OCc1ccc(S(F)(F)(F)(F)F)cc1)C(=O)O [Example 81, (S)-2-(6-fluoro-1-((4-(pentafluoro-16-sulfanyl)benzyl)oxy)-2-naphthamido)-3,3-dimethylbutanoic Acid]
13 | A (“A” refers to AUC @10 uM >6) | 100 | 224 | CC(C)(C)[C@H](NC(=O)c1ccc2ccc(Br)cc2c1OCc1ccc(OC(F)(F)F)cc1)C(=O)O [Example 247, (2S)-2-[[7-bromo-1-[[4-(trifluoromethoxy)phenyl]methoxy]naphthalene-2-carbonyl]amino]-3,3-dimethyl-butanoic Acid]
14 | C (“C” refers to AUC @10 uM <4) | 1200 | 81.3 | O=C(N[C@H](C(=O)O)C12CC(C(F)(F)F)(C1)C2)c1ccc2ccccc2c1OCc1ccc(C(F)(F)F)cc1 [Example 13, (S)-2-(1-((4-(trifluoromethyl)benzyl)oxy)-2-naphthamido)-2-(3-(trifluoromethyl)bicyclo[1.1.1]pentan-1-yl)acetic Acid]
15 | A (“A” refers to AUC @10 uM >6) | 700 | 246 | CCC(C)(C)[C@H](NC(=O)c1ccc2ccc(C)cc2c1OCC1CCCCC1)C(=O)O [Example 281, (S)-2-(1-(cyclohexylmethoxy)-7-methyl-2-naphthamido)-3,3-dimethylpentanoic Acid]
16 | C (“C” refers to AUC @10 uM <4) | 800 | 100 | CC(C)(c1ccccc1)[C@H](NC(=O)c1ccc2ccccc2c1OCc1ccc(SC(F)(F)F)cc1)C(=O)O [Example 5, (S)-3-methyl-3-phenyl-2-(1-((4-((trifluoromethyl)thio)benzyl)oxy)-2-naphthamido)butanoic Acid]
17 | C (“C” refers to AUC @10 uM <4) | 400 | 195 | CC1(C(NC(=O)c2ccc3ccccc3c2OCc2ccc(C(F)(F)F)cc2)C(=O)O)CCCCC1 (centres unmarked) [Example 80, 2-(1-methylcyclohexyl)-2-(1-((4-(trifluoromethyl)benzyl)oxy)-2-naphthamido)acetic Acid]
18 | C (“C” refers to AUC @10 uM <4) | 2700 | 132 | CC(C)(C)[C@H](NC(=O)c1ccc2cc(F)ccc2c1OCc1nc2ccccc2s1)C(=O)O [Example 61, (S)-2-(1-(benzo[d]thiazol-2-ylmethoxy)-6-fluoro-2-naphthamido)-3,3-dimethylbutanoic Acid]
19 | C (“C” refers to AUC @10 uM <4) | 16000 | 29.3 | O=C(N[C@@H](Cc1ccccc1)C(=O)O)c1ccc2ccccc2c1OCc1cccc(C(F)(F)F)c1 [Example 95, (1-((3-(trifluoromethyl)benzyl)oxy)-2-naphthoyl)-L-phenylalanine]
20 | C (“C” refers to AUC @10 uM <4) | 800 | 143 | O=C(NC(C(=O)O)C1(C(F)(F)F)CC1)c1ccc2ccc(Cl)cc2c1OCc1ccc(OC(F)(F)F)cc1 (centres unmarked) [Example 238, 2-(7-chloro-1-((4-(trifluoromethoxy)benzyl)oxy)-2-naphthamido)-2-(1-(trifluoromethyl)cyclopropyl)acetic Acid]
